Counter-ions that a name gives are not always drawn.
Assays:
Assay type in all cases: biochemical
[1] = tested on: protease Prozyme 6 from Aspergillus oryzae (Amano, Enzyme F); assay: Asymmetric hydrolysis in an extractive dispersion reactor, Enzyme F; conditions: 100 mg Prozyme 6, 3.38 gm ester in 100 ml buffer pH 7.0 plus 100 ml hexane, room temperature, 3.5 hours
Procedure: In this Example, the hexane was dispersed in the reaction vessel to extract the inhibitory ibuprofen acid as it is formed. The reaction was started by adding 100 mg of the protease from the fungus Aspergillus oryzae (from Amano Enzyme Corporation, Prozyme 6, 60,000 units per mg of solid).
After 3.5 hours at room temperature with vigorous stirring, the solution was acidified to pH 2 and extracted with 2 volumes of hexane. The aqueous phase was saved for subsequent workup. The hexane phase was dried over MgSO4 and evaporated to dryness. The resolved ibuprofen product so recovered consisted of 490 mg of white powder, indicating 24% conversion. The optical rotation was -0.568° (c=1.015 in ethanol), indicating the R isomer of ibuprofen.

[2] = tested on: protease Prozyme 6 from Aspergillus oryzae (Amano, Enzyme F); assay: Asymmetric hydrolysis in an extractive membrane reactor, enzyme not associated with the membrane, Enzyme F
Excerpt: Hexane was recirculated through the lumen or bores of the fibers in the module. The aqueous solution in the shell contained the enzyme and ester. While the cellulose membrane is water-wet, the membrane rejects the macromolecular enzyme (molecular weight 18,000). Therefore, the enzyme resides solely in the aqueous ester solution. As the ibuprofen acid was formed, it was extracted into the hexane phase, thereby reducing the effect of product (ibuprofen acid) inhibition on the activity of the enzyme.
The aqueous phase used to extract the ibuprofen acid from hexane in this module contained 0.1M sodium carbonate buffer at pH 9.5. The pH was maintained at this value by the addition of 8.22M sodium hydroxide as required.
In this Example, the aqueous stream in the extractive membrane reactor module consisted of a solution of the sulfomethyl ester of ibuprofen (1), which solution was prepared by adding 32.51 gm of the sodium salt of the ester (at 75% chemical purity) to 1000 ml of 0.1M sodium phosphate buffer (pH 7.0). The reaction was started by adding 2 gm of the protease (F) from the fungus Aspergillus oryzae (from Amano Enzyme Corporation, Prozyme 6, 60,000 units per gm of solid). […]
The optical rotation of the recovered product was measured by polarimetry; the experimentally determined value for [α]D was -56.7° (measured at c=0.815 in ethanol), thereby indicating the R isomer of ibuprofen. The sample was also analyzed by chiral HPLC using a Bakerbond DNBPG (covalent) column (4.6×250 mm), with 96.9% hexane:3.0% 2-propanol:0.1% acetonitrile as the mobile phase at 2 ml/min after derivatization with naphthalene amine. […] The optical purity or enantiomeric excess of this R ibuprofen sample as determined by this chiral HPLC procedure was 99.3% (i.e., enantiomeric excess of R ibuprofen).
The aqueous phase at pH 7.0 (as recovered from the extractive membrane reactor) was mixed with 280 gm of sodium chloride to salt out the remaining unconverted ester. […] The optical rotation (as measured by polarimetry) was [α]D =+57.4° (c=1.29 in ethanol), indicating the S isomer of ibuprofen. […]

[3] = tested on: protease Prozyme 6 from Aspergillus oryzae (Amano, Enzyme F); assay: Homogeneous aqueous enzymatic resolution (ester hydrolysis), Enzyme F
Procedure: (§1) The enzymatic reaction mixtures were capped and briefly shaken until all the substrate had dissolved, and the enzyme had completely dissolved or dispersed. […] Evaporation of the ether left a white solid. Rotations were measured at c=1 in CHCl3.
as §1
The reaction was started by adding 100 mg of the protease (F) from the fungus Aspergillus oryzae (from Amano Enzyme Corporation, Prozyme 6, 60,000 units per mg of solid).
After 20 hours at room temperature, the solution was acidified to pH 2 and extracted with 3 volumes of diethyl ether. The aqueous phase was saved for subsequent workup. The ether phase was washed with two volumes of distilled water and then one volume of saturated sodium chloride, and then it was dried over MgSO4 and subsequently evaporated to dryness. The resolved ibuprofen product recovered was 930 mg of white powder, indicating 45% conversion of racemic ester to acid. The optical rotation was -0.580° (measured at c=1 in ethanol), indicating the R isomer of ibuprofen.
35 mg of protease Enzyme F, as the commercial preparation Prozyme 6, were added to the aqueous solution. The reaction flask was capped, and briefly shaken until all the enzyme had dissolved or dispersed. […] The resulting mixture was diluted with one volume of water and was extracted with diethyl ether (2 times 200 ml). The ether layers were combined and backwashed with water (2 times 200 ml), saturated NaCl solution (200 ml), and then dried over MgSO4.
In this control run, a 0.5M ester solution of (1) was prepared in 325 ml of 0.1M sodium phosphate buffer (pH 7.0). The reaction was started by adding 3 gm of the above enzyme (F). The pH was controlled at 7.0 with 8.22M sodium hydroxide. After 6.49 hours at 30 ° C., 6.63 ml of hydroxide were added, indicating 37.7% conversion. The reaction was allowed to continue overnight and, after 23.1 hours, a total of 7.2 ml of sodium hydroxide were added, indicating 40.9% conversion.

[4] = tested on: lipase from Candida cylindracea (Meito Sangyo, Lipase OF); assay: Activity of the carrier lipase against the ester
[5] = molecular target: T1, Protease XXVII, Nagarse (Sigma, Enzyme D) (Bacillus amyloliquefaciens, UniProt P00782); assay: Homogeneous aqueous enzymatic resolution (ester hydrolysis), Enzyme D; conditions: 100 mg enzyme D, 10 mmol ester in 100 ml 0.2 M phosphate buffer pH 7.0, 20-22 C, 20 hours
T1 construct: purchased Sigma
T1 sequence (P00782 108-382): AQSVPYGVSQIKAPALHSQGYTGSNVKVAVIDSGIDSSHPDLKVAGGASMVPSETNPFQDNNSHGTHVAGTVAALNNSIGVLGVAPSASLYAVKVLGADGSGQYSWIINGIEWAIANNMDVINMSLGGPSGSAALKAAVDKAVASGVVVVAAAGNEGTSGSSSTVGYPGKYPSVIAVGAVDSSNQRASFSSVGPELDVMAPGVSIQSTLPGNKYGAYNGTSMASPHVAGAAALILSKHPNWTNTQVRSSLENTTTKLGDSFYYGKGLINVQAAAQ

[6] = tested on: Protease XXIII from Aspergillus oryzae (Sigma, Enzyme A); assay: Homogeneous aqueous enzymatic resolution (ester hydrolysis), Enzyme A; conditions: acid product; 100 mg enzyme A, pH 7.0, 20-22 C, 20 hours
Procedure: No further purification was performed.

[7] = tested on: Protease XXIV, bacterial protease (Sigma, Enzyme J); assay: pH-stat rate of hydrolysis of single enantiomers, Enzyme J; conditions: 50 mM single enantiomer, 50 mM buffer pH 7.6, enzyme J
Procedure: (§2) 15 ml of a solution containing one enantiomer of the ester at a concentration of 50 mM, and Na3 PO4 buffer at 50 mM and pH 7.6 was observed using a pH stat device. 0.1 ml of a 50 mg/ml solution of Enzyme J, made up from the commercially available preparation in 50 mM Na3 PO4 buffer at pH 7.6, were added. Rates of hydrolysis of both enantiomers of the ester compound were determined for the enzyme. The ratio of the rates of hydrolysis for the two enantiomers for the two enantiomers with respect to the enzyme indicate the stereospecificity of that enzyme's hydrolytic action on the racemic mixture of the ester. No evidence for the hydrolysis of the acetylthio ester portion of the substrate molecule was found.

[8] = tested on: Protease XIV from Streptomyces griseus (Sigma, Enzyme I); assay: pH-stat rate of hydrolysis of single enantiomers, Enzyme I; conditions: 50 mM single enantiomer, 50 mM buffer pH 7.6, enzyme I
Procedure: as §2, with “solution of protease enzyme I, made up” for “solution of Enzyme J, made up”, “for the protease enzyme. The” for “for the enzyme. The”

[9] = molecular target: T2, Protease VIII, Subtilopeptidase A (subtilisin Carlsberg) (Sigma, Enzyme B) (Bacillus licheniformis, UniProt P00780); assay: pH-stat rate of hydrolysis of single enantiomers, Enzyme B; conditions: 50 mM single enantiomer, 50 mM buffer pH 7.6, enzyme B
T2 sequence (P00780 106-379): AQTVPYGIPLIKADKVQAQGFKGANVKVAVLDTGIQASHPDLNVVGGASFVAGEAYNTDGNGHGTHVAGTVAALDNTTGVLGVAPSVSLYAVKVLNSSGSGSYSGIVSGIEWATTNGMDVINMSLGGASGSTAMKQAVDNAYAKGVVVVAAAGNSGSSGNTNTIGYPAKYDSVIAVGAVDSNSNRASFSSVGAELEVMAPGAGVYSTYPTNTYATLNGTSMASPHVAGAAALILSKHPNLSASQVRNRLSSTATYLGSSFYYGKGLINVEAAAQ
Procedure: 15 ml of a solution containing one enantiomer of the ester at a concentration of 50 mM, and Na3 PO4 buffer at 50 mM and pH 7.6 wa observed using pH stat device 0.1 ml of a 50 mg/ml solution of enzyme B, made up from
as §2, with “the” for “15 ml of a solution containing one enantiomer of the ester at a concentration of 50 mM, and Na3 PO4 buffer at 50 mM and pH 7.6 was observed using a pH stat device. 0.1 ml of a 50 mg/ml solution of Enzyme J, made up from the”

[10] = molecular target: T1, Protease XXVII, Nagarse (Sigma, Enzyme D); assay: pH-stat rate of hydrolysis of single enantiomers, Enzyme D; conditions: 50 mM single enantiomer, 50 mM buffer pH 7.6, enzyme D
Procedure: as §2, with “enzyme D,” for “Enzyme J,”, “thioacetyl” for “acetylthio”

[11] = tested on: Protease XXIII from Aspergillus oryzae (Sigma, Enzyme A); assay: pH-stat rate of hydrolysis of single enantiomers, Enzyme A; conditions: 50 mM single enantiomer, 50 mM buffer pH 7.6, enzyme A
Procedure: 15 ml of a solution containing one enantiomer of the ester at a concentration of 50 mM, and Na3 PO4 buffer at 50 mM and pH 7.6 was observed using a pH stat device. 0.1 ml of a 50 mg/ml solution of enzyme A, made up from
Rates of hydrolysis of both enantiomers of the ester compound were
determined for the enzyme. The ratio of the rates of hydrolysis for the
two enantiomers for the two enantiomers with respect to the enzyme
indicate the stereospecificity of that enzyme's hydrolytic action on the […]

[12] = chiral HPLC, after 50% conversion

Row | Structure (SMILES) | conversion [1] [%] | conversion of the racemic ester to ibuprofen acid ([2]; 2 gm Prozyme 6, 32.51 gm ester in 1000 ml 0.1M sodium phosphate pH 7.0, hexane extractant, room temperature, 6.3 hours) [%] | enantiomeric excess of R ibuprofen (acid product) [2, 12] [%] | enantiomeric excess of S ibuprofen (from unconverted ester hydrolyzed at pH 12) [2, 12] [%] | conversion of racemic ester to acid ([3]; 100 mg Prozyme 6 (F), 3.22 gm ester in 100 ml 0.2M sodium phosphate pH 7.0, room temperature, 20 hours) [%] | conversion ([3]; 0.5M ester, 3 gm enzyme F, pH 7.0, 30 C, after 23.1 hours, 500000 µM) [%] | activity of the lipase against the ester [4] | % CONVERSION [5] [%] | % e.e. [6] [%] | Rate of hydrolysis [7] [umols/hr/mg] | Rate of hydrolysis [8] [umols/hr/mg] | Rate of hydrolysis [9] [umols/hr/mg] | Rate of hydrolysis [10] [umols/hr/mg] | Rate of hydrolysis [11] [umols/hr/mg]
1 | CC(C)Cc1ccc(C(C)C(=O)OCS(=O)(=O)O)cc1 (racemic) [Compound 1, Sodium Salt of 4-Sulfomethyl Ester of 2-(4-Isobutylphenyl)propanoic Acid] | 24 | 50 | 99.3 | 98.9 | 45 | 40.9 | inactive | 34.0 | > 99 |  |  |  |  | 
2 | CC(=O)SC[C@H](C)C(=O)OCS(=O)(=O)O [Compound 15, Potassium Salt of the Sulfomethyl Ester of L-(+)-S-3-Acetylthio-2-methylpropanoic Acid] |  |  |  |  |  |  |  |  |  | 65 | 105 | 135 | 29 | 12
3 | CC(=O)SC[C@@H](C)C(=O)OCS(=O)(=O)O [Compound 14, Potassium Salt of the Sulfomethyl Ester of D-(-)-S-3-Acetylthio-2-methylpropanoic Acid] |  |  |  |  |  |  |  |  |  | 61 | 63 | 65 | 27 | 5.3

Source: patent publication US5198568A, “Compounds useful in enzymatic resolution systems and their preparation” (priority 1991, dated 1993)
